In the test the test system is Plasmodium falciparum. Kind of test: Antimicrobial activity against Plasmodium falciparum isolate TM3036 expressing 1 copies of pfmdr1 gene.

The results in this text go back to ChEMBL document CHEMBL1649136, “Plasmodium falciparum pfmdr1 amplification, mefloquine resistance, and parasite fitness” (Antimicrob Agents Chemother, 2009).

The term IC50 denotes the concentration that gives 50% inhibition. Read a high IC50 as weaker potency. Regarding `Cl.OC(c1cc(C(F)(F)F)nc2c(C(F)(F)F)cccc12)C1CCCCN1` (stereo unspecified) [MEFLOQUINE HYDROCHLORIDE], inhibition was half-maximal at 1.47 ng/mL (IC50).
